From PMC3131588, “Effects of Onion (Allium cepa L.) Extract Administration on Intestinal α-Glucosidases Activities and Spikes in Postprandial Blood Glucose Levels in SD Rats Model” (International Journal of Molecular Sciences, 2011)

Legend:
[1] = molecular target: T1, rat intestinal maltase; assay: maltose hydrolysis, liberated glucose by glucose oxidase method; type: biochemical; details: maltose 0.4 mg/mL, 0.1 M phosphate pH 7.0, 37 °C, 30 min; crude rat intestinal enzyme; quercetin bought as dihydrate
T1 construct: gene Mgam; native enzymes in crude supernatant of rat intestinal acetone powder (Sigma-Aldrich); maltase activity not resolved to one gene product
From the text: maltose hydrolysis, liberated glucose by glucose oxidase method on rat intestinal maltase

[2] = molecular target: T2, rat intestinal α-glucosidase; assay: p-nitrophenyl-α-D-glucopyranoside hydrolysis, absorbance at […] nm; type: biochemical; details: 5 mM p-nitrophenyl-α-D-glucopyranoside stock (50 μL), 0.1 M phosphate pH 6.9, 25 °C; crude rat intestinal enzyme; quercetin bought as dihydrate
T2 construct: gene Mgam; native enzymes in crude supernatant of rat intestinal acetone powder (Sigma-Aldrich), EC 3.2.1.20; not resolved to one gene product

SMILES: O=c1c(O)c(-c2ccc(O)c(O)c2)oc2cc(O)cc(O)c12 [quercetin, 3,3′,4′,5,7-Pentahydroxyflavone dihydrate]
- IC50 [1]: 70 µg/mL
- IC50 [2]: 150 µg/mL
